According to PubChem BioAssay (NCI):
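48-hour exposure; five concentrations; linearly interpolated endpoints. TGI marks complete inhibition of growth.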

Columns and labels:
Experiment in all cases: growth of human tumour cells (NCI), 48 h
SK-OV-3 ovarian = test system: SK-OV-3 ovarian
NCI-H460 lung = test system: NCI-H460 lung
SK-MEL-2 melanoma = test system: SK-MEL-2 melanoma
MDA-N = test system: MDA-N
HCT-116 colon = test system: HCT-116 colon
PC-3 prostate = test system: PC-3 prostate
NCI-H522 lung = test system: NCI-H522 lung
HS 578T breast = test system: HS 578T breast
SK-MEL-28 melanoma = test system: SK-MEL-28 melanoma

Row | Compound | TGI (SK-OV-3 ovarian) [µM] | TGI (NCI-H460 lung) [µM] | TGI (SK-MEL-2 melanoma) [µM] | TGI (MDA-N) [µM] | TGI (HCT-116 colon) [µM] | TGI (PC-3 prostate) [µM] | TGI (NCI-H522 lung) [µM] | TGI (HS 578T breast) [µM] | TGI (SK-MEL-28 melanoma) [µM]
1 | O=[N+]([O-])c1ccc2c(c1)nc(Cc1ccccc1)n2C[C@@H]1CCCN2CCCCC12 (some centres not stated) | > 100 | > 100 | 44.8 | 38.6 | > 100 | > 100 | 80 | > 100 | 38.3
2 | Oc1nc(N/N=C/c2c[nH]c3ccccc23)[nH]c1/C=C1\C=Nc2ccccc21 | > 100 | > 100 | 36.5 | > 100 | 36.7 | 32 | 24.2 | 40.6 | 54.1
3 | CC(C)CC(=O)NC(Nc1ccc(S(=O)(=O)Nc2ncccn2)cc1)(C(F)(F)F)C(F)(F)F | > 100 | > 100 | > 100 | > 100 | > 100 | > 100 | > 100 | > 100 | > 100
4 | CC(=O)N1N=C(c2c(O)ccc3ccccc23)CC1C(=O)c1ccco1 (configuration not stated) | > 100 | > 100 | 43.1 | 76.9 | 50.3 | > 100 | > 100 | > 100 | > 100
5 | COCn1c(C)c(C)c2c(=O)oc(=O)[nH]c21 | > 100 | > 100 | > 100 | > 100 | > 100 | > 100 | > 100 | > 100 | > 100
6 | CC/C(Cl)=N\OC(=O)Nc1ccc(OC)cc1 | 31.7 | 44.9 | 33 | 11.3 | 12 | 29.5 | 2.18 | 52 | 15.1
7 | CN(C)CCCn1c(Cc2ccccc2)nc2cc(C(F)(F)F)ccc21 | 63.2 | 43.2 | 33 | 33.1 | 33.2 | > 100 | 48.3 | > 100 | 37.6
8 | COc1ccc2oc(S(=O)(=O)N3CC(CCl)c4ccc([N+](=O)[O-])cc43)cc2c1 (configuration not stated) | 4.83 | 0.401 | 2.96 | 11 | 4.22 | 11.5 | 0.246 | > 100 | > 61.6
9 | CC1(C)O[C@H](C(=O)O)[C@@H](C(=O)O)O1 | > 100 | > 100 | > 100 | > 100 | > 100 | > 100 | > 100 | > 100 | > 100
10 | NNC(=O)CC(=O)Nc1ccc(Cl)cc1 | > 100 | > 100 | > 100 | > 100 | > 100 | > 100 | > 100 | > 100 | > 100
11 | COC(c1ccsc1)C(C#N)(C#N)N=Cc1ccsc1 (configuration not stated) | 59.1 | 45.4 | 35.6 | 33.4 | 25.4 | 27.5 | 21.3 | 61.7 | 33.1
12 | O=C(O)CC(NC(=O)Nc1ccc([N+](=O)[O-])cc1)C(=O)Nc1ccc([N+](=O)[O-])cc1 (configuration not stated) | > 100 | > 100 | > 100 | > 100 | > 100 | > 100 | > 100 | > 100 | > 100
13 | CCOC(=O)C(=[N+]=[N-])C(=O)C[N+]12CCN(CC1)CC2 | > 100 | > 100 | > 100 | > 100 | > 100 | > 100 | > 100 | > 100 | > 100
14 | O=C(Nc1ccccc1)c1cc2c(cc1Cl)Sc1nccn1S2(=O)=O | > 100 | > 60.6 | 58.3 | > 100 | > 54.4 | > 70.1 | 38.6 | > 84.4 | 46.9
15 | O=c1c2ccccc2oc2c1ccc1ncccc12 | 34.4 | 17 | > 100 | > 100 | 45.2 | > 100 | 59.1 | 34.8 | > 100
16 | CCNC(=S)N/N=C/c1cc(OC)ccc1O | > 100 | > 100 | > 100 | > 100 | > 100 | > 100 | > 100 | > 100 | > 100
17 | CCCCC/C=C1/CC(CO)(COC(=O)CC(C(C)C)C(C)C)OC1=O (configuration not stated) | 40.4 | > 100 | 42.9 | 17 | 28 | 24.6 | 29.9 | 9.09 | 26.7
18 | C/C(O)=C/c1nc2ccccc2nc1/C=C(/C)O | > 100 | 34.4 | 40.1 | > 100 | 39.3 | > 100 | 27.7 | 67.5 | > 100
